biological target: Platelet-derived growth factor receptor beta (Homo sapiens, UniProt P09619); assay: Inhibitory concentration against platelet-derived growth factor receptor beta phosphorylation in CHO cells; assay type: functional, cell-based, Cricetulus griseus
Sequence (P09619 whole entry): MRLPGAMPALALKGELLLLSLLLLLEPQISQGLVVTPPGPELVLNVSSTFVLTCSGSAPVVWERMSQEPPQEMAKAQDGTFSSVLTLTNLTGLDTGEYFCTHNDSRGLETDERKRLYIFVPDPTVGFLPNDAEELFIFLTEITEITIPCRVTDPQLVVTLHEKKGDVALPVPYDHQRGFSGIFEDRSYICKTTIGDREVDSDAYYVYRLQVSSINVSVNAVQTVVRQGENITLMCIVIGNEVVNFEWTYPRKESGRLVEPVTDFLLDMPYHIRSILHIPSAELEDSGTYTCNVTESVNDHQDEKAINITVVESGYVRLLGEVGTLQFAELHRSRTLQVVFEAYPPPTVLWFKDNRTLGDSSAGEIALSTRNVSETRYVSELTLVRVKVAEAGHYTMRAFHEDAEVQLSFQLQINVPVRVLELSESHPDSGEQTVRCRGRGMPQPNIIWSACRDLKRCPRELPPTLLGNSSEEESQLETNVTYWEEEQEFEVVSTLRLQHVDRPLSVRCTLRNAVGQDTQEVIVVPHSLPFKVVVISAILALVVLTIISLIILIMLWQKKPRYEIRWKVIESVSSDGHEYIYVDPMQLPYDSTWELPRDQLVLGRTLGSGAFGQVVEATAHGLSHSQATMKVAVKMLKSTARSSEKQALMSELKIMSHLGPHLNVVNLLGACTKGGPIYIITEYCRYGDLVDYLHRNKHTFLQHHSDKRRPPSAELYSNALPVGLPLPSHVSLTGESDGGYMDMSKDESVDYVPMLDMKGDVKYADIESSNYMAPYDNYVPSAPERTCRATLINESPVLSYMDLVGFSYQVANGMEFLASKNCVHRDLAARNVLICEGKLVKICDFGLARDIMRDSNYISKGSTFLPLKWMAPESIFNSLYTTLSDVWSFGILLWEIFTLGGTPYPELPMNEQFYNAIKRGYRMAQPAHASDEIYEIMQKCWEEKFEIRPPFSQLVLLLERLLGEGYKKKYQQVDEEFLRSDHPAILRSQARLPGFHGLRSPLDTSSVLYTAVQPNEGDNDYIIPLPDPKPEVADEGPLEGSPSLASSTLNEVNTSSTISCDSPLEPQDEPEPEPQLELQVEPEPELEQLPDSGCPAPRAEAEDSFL

Compound	IC50 [nM]
S=C(NCc1ccccc1)N1CCN(c2ncnc3cc(Cl)ccc23)CC1	5160
Nc1cc2ncnc(N3CCN(C(=O)Nc4ccc(Oc5ccccc5)cc4)CC3)c2cc1[N+](=O)[O-]	1160
O=C(Nc1ccc(Oc2ccccc2)cc1)N1CCN(c2ncnc3ccc(Br)cc23)CC1	1380
O=C(Nc1ccc(Oc2ccccc2)cc1)N1CCN(c2ncnc3ccc([N+](=O)[O-])cc23)CC1	29700
O=C(Nc1ccc(Oc2ccccc2)cc1)N1CCN(c2ncnc3ccc(I)cc23)CC1	5170
Cc1ccc2c(N3CCN(C(=O)Nc4ccc(Oc5ccccc5)cc4)CC3)ncnc2c1	> 100
O=C(Nc1ccc(Oc2ccccc2)cc1)N1CCN(c2ncnc3cc(Cl)c([N+](=O)[O-])cc23)CC1	1320
Cc1ccc2ncnc(N3CCN(C(=O)Nc4ccc(Oc5ccccc5)cc4)CC3)c2c1	540
O=C(Nc1ccc(Oc2ccccc2)cc1)N1CCN(c2ncnc3cc([N+](=O)[O-])ccc23)CC1	2880
Nc1cc2c(N3CCN(C(=S)NCc4ccccc4)CC3)ncnc2cc1Cl	160
Cc1cccc2ncnc(N3CCN(C(=O)Nc4ccc(Oc5ccccc5)cc4)CC3)c12	6250
CC(C)Oc1ccc2c(N3CCN(C(=O)Nc4ccc(Oc5ccccc5)cc4)CC3)ncnc2c1	1120
O=C(Nc1ccc(Oc2ccccc2)cc1)N1CCN(c2ncnc3cc(F)c(F)cc23)CC1	970
O=C(Nc1ccc(Oc2ccccc2)cc1)N1CCN(c2ncnc3ccc(F)cc23)CC1	350
CC(=O)Nc1cc2c(N3CCN(/C(S)=N\Cc4ccccc4)CC3)ncnc2cc1Cl	> 1000
COC(=O)c1ccc2c(N3CCN(C(=O)Nc4ccc(Oc5ccccc5)cc4)CC3)ncnc2c1	> 750
COc1cccc2c(N3CCN(C(=O)Nc4ccc(Oc5ccccc5)cc4)CC3)ncnc12	10700
O=[N+]([O-])c1cc2c(N3CCN(C(=S)NCc4ccccc4)CC3)ncnc2cc1Cl	> 30000
O=C(O)c1ccc2c(N3CCN(C(=O)Nc4ccc(Oc5ccccc5)cc4)CC3)ncnc2c1	> 30000
